Results on four molecules are retold here after patent publication US20260137820A1, “TRIFUNCTIONAL COMPOUND AND USE THEREOF” (PEKING UNIVERSITY, priority 2022, published 2026).

Data set [1] has as its target T1, Human FAP Protein (Homo sapiens, UniProt Q12884).
T1 construct: His; purchased Novoprotein (China)
T1 sequence (Q12884 1-760): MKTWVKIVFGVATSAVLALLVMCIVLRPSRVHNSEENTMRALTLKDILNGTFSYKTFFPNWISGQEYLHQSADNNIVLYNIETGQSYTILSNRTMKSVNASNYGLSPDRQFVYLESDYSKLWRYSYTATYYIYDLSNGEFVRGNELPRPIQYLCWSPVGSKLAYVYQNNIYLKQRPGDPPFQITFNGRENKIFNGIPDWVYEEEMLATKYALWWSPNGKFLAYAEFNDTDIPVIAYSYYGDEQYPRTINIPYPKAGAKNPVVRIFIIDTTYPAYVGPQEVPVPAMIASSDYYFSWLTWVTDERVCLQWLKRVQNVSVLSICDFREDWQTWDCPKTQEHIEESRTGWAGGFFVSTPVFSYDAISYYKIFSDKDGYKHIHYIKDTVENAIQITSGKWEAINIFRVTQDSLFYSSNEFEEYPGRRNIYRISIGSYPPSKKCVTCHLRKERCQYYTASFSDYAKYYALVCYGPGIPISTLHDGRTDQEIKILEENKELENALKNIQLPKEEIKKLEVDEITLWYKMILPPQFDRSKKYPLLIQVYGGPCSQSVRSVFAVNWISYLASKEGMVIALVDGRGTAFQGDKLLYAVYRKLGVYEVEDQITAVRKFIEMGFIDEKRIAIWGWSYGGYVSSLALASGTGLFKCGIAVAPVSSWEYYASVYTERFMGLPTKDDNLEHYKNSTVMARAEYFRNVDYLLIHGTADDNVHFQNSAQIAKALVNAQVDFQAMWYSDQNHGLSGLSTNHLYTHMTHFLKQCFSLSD
Put plainly: Surface plasmon resonance, multi-cycle mode. Type of data set: binding. The conditions noted are these: SPR multi-cycle, 1:1 binding model. As for the experimental part:
According to US Pharmacopeia USP43 IMMUNOLOGICAL TEST METHODS-SURFACE PLASMON RESONANCE<1105> and Chinese Pharmacopoeia 2020, Volume IV, Surface plasmon resonance method, Label-free Immunochemistry (IV), 3429 Immunochemistry, General Rule, a surface plasmon resonance experiment was carried out.
A surface plasma chromatograph from Cytiva was used for measurement. Before protein injection, 400 mM condensing agent 1-ethyl-(3-dimethylaminopropyl)carbodiimide hydrochloride and 100 mM N-hydroxysuccinimide were mixed, and a CM5 sensor chip was activated with this mixture for 420 seconds at a flow rate of 10 μL/min. 50 μg/mL protein was then injected into an Fc2 sample channel at a flow rate of 10 μL/min to achieve a protein immobilization level of about 8000-15000 RU. In the control group, no protein was injected. Subsequently, the unreacted chip was blocked with 1M ethanolamine hydrochloride-NaOH at a flow rate of 10 μL/min for 420 seconds.
Different gradient solutions were injected into channels Fc1-Fc2 at a flow rate of 30 μL/min, followed by a 60-second binding phase and a 90-second dissociation phase, and data were collected.

For data set [2], the system named is FAP, DPP-4 and PREP. Put plainly: Binding selectivity to homologous proteins (competitive inhibition of enzyme substrate, IC50). The conditions noted are these: from IC50 values, pNA release. Type of data set: biochemical. The protocol: Taking FAP target as an example, homologous proteins thereof include, but are not limited to, DPP-4 and PREP. The structural similarity thereof may lead to a decreased binding selectivity of the modified precursor molecules for the homologous proteins, resulting in an increased uptake in non-target organs.
The binding selectivity for homologous proteins was determined by a competitive inhibition experiment on the substrate of the enzymes, and the binding/inhibition selectivity thereof is indirectly evaluated by the median inhibitory concentration (IC50) values obtained.
By reference to the method described in Extended Structure-Activity Relationship and Pharmacokinetic Investigation of (4-Quinolinoyl)glycyl-2-cyanopyrrolidine Inhibitors of Fibroblast Activation Protein (FAP). Journal of Medicinal Chemistry 57, 3053-3074 (2014), published by Jansen et al., the initial rate of p-nitroaniline (pNA) released from the substrate (absorption at 405 nm) was measured by using a microplate reader (PerkinElmer, Victor™ X5) at 37° C. in a final volume of 200 μL to determine the kinetic properties of the enzyme activity. […]
The determination method for IC50 on FAP is as follows: the substrate Z-Gly-Pro-p-nitroanilide (50 μM, Cat #G-58468, HEOWNS) was used to measure FAP activity at pH 7.4. […] The mixture was then incubated at 37° C. for 6 hours, and the release of pNA was then measured. […]

For data set [3], the system named is HT-1080-FAP tumor. Description: PET/CT imaging in HT-1080-FAP tumor-bearing mouse model. The class given is in vivo. The following applies: ^68Ga label, 18.5 MBq via tail vein, p<0.005. The protocol: Mouse model: Nu/Nu mice (SPF grade) were purchased from Beijing Charles River Laboratories (China) and injected subcutaneously with HT-1080-FAP cells to construct a tumor model with high FAP expression.
All PET/CT scans were carried out on Mediso nanoScan® PET 122S small animal PET/CT.
After a certain number of HT-1080-FAP tumor mice were taken and injected via the tail vein with 7.4-18.5 MBq of ^68Ga/^86Y-FAPI-04 (control) and ^68Ga/^86Y-FAPI-CB series molecules at specified time points (Note: the injection of the control and investigation molecules was separated apart by at least five half-lives of the nuclide to ensure that the radioactivity of the previous probe had almost completely decayed and was essentially completely metabolized), imaging was carried out at specified time points. In some examples, the mice were anesthetized and then sacrificed by neck breaking at a certain time point. Organs were dissected and taken for radioactivity measurement.
A ^68Ge-^68Ga generator was eluted with 5 mL of 0.6 M high-purity hydrochloric acid to obtain a Ga-68 hydrochloric acid solution. 1 mL of the Ga-68 solution after elution was taken, and 100 μL of 3 M sodium hydroxide and 130 μL of 3M sodium acetate were added to adjust the acidity to a final pH of 4.0. 12 μg of FAPI-CB-00 compound was added, and the reaction mixture was heated to 70° C. and maintained for 20 min. […]

Data set [4] relates to HT-1080-FAP tumor. Put plainly: ^177Lu radionuclide therapy experiment in tumor mouse model. The class given is in vivo. The following applies: ^177Lu-labeled, treatment on day 0 and day 4, same or higher dose; vs normal saline or FAPI-04 control group. The protocol: (§1) When the average tumor size reached about 100 mm^3, HT-1080-FAP tumor mice in the same batch were randomly divided into five groups, with n=7 or 8 in each group. Two rounds of treatment were then carried out on day 0 and day 4. […] The tumor size and weight of the mice were monitored every 2 or 3 days.

Data set [5] concerns HT-1080-FAP tumor. Description: ^225Ac radionuclide therapy experiment in tumor mouse model. The class given is in vivo. The conditions noted are these: ^225Ac-labeled, treatment on day 0 and day 4, same or higher dose; vs normal saline or FAPI-04 control group. As for the experimental part:
as §1

Data set [6] relates to LNCaP cells. Put plainly: Cell affinity determination, similar method. The class given is cell-based. As for the experimental part:
(§2) HT-1080-FAP cells were inoculated into a 24-well plate 24 hours in advance, with the density being about 30% (calculated and estimated), 10^5 cells (countable) per well. 0.5 mL of a complete medium was added. The medium was changed to a serum-free medium. 12 groups of FAPI-CB-01 solutions with a concentration gradient of 0-5000 nM were set up, with internal replicates n=4 for each group. […] 0.75 nM ^68Ga-FAPI-04 was added to each well, followed by incubation at 37° C. for 1 hour. After washing twice with cold PBS and lysis, the radioactivity count was measured.
(§3) Using a similar method, the corresponding targeting PSMA-CB-05, FOLR1-CB-06, SSTR2-CB-02, Nectin4-CB-02, and CXCR4-CB-03 were determined for affinity in LNCaP cells, KB cells, AR42J cells, SW-780 cells, or Daudi cells, respectively. All of these compounds maintained good affinity.

In data set [7] the test system is AR42J cells. Description: Cell affinity determination, similar method. Type of data set: cell-based. The protocol: as §2, §3

With `N#C[C@@H]1CC(F)(F)CN1C(=O)CNC(=O)c1ccnc2ccc(OCCCN3CCN(C(=O)CN4CCN(CC(=O)O)CCN(CC(=O)O)CCN(CC(=O)O)CC4)CC3)cc12` [FAPI-04, reference compound], in data set [1], the “Rmax (maximum theoretical analyte binding capacity)” value is reported as 21.7 RU, the ka was found to be 845000 M⁻¹ s⁻¹ and the kd came out at 0.000311 s⁻¹.

Regarding `N#C[C@@H]1CC(F)(F)CN1C(=O)CNC(=O)c1ccnc2ccc(OCCCN3CCN(C(=O)[C@H](CCCCNC(=O)c4cccc(OS(=O)(=O)F)c4)NC(=O)CN4CCN(CC(=O)O)CCN(CC(=O)O)CCN(CC(=O)O)CC4)CC3)cc12` [FAPI-CB-02], the “selectivity to FAP protein over homologous proteins DPP-4 and PREP” value in data set [2] is “high selectivity”. Further, the “improvement of maximum standard tumor uptake value (SUVmax) compared with FAPI-04” value in data set [3] is approximately 4 times. The tumor inhibition effect entry in data set [4] and in data set [5] was “significantly better tumor inhibition effect” in each case.

In the case of `O=C(O)CC[C@H](NC(=O)N[C@@H](CCCCNC(=O)[C@H](Cc1ccc2ccccc2c1)NC(=O)[C@H]1CC[C@H](CNC(=O)[C@H](CCCCNC(=O)CCc2cccc(S(=O)(=O)F)c2)NC(=O)CN2CCN(CC(=O)O)CCN(CC(=O)O)CCN(CC(=O)O)CC2)CC1)C(=O)O)C(=O)O` [PSMA-CB-05], the affinity entry in data set [6] is listed as “good affinity”.

Take `C[C@@H](O)[C@H](NC(=O)[C@@H]1CSSC[C@H](NC(=O)[C@@H](Cc2ccccc2)NC(=O)CN2CCN(CC(=O)O)CCN(CC(=O)O)CCN(CC(=O)O)CC2)C(=O)N[C@@H](Cc2ccc(OS(=O)(=O)F)cc2)C(=O)N[C@H](Cc2c[nH]c3ccccc23)C(=O)N[C@@H](CCCCN)C(=O)N[C@@H]([C@@H](C)O)C(=O)N1)C(=O)O` [SSTR2-CB-02]: in data set [7], the affinity result was “good affinity”.
